Each structure is given as a SMILES string. Active and inactive are the calls of the source. The rule behind the calls is not given here.

Series [1] relates to Peritoneal macrophage cell. The series can be described thus: Inhibition of TNF-alpha induced necroptosis in thioglycolate-elicited mouse peritoneal macrophage assessed as increase in cell viability at 0.04 to 1 uM incubated for 24 hrs in presence of zVAD and SMAC007 by Cell Titer-Glo luminescent cell viability assay. To be noted: dose 0.04-1 µM. In kind it is functional, cell-based.

The test system of series [2] is MEF. The series can be described thus: Induction of apoptosis in RIP3-/- MEF cells transfected with human RIP3 incubated for 18 hrs by Cell Titer-Glo luminescent cell viability assay. Particulars: mouse. In kind it is toxicity, cell-based. For orientation: In ATP-based viability assays light output follows the ATP content of the culture.
Series [3] has as its target Casein kinase I isoform gamma-3 (Homo sapiens) (UniProt Q9Y6M4). In words: Inhibition of human CK1g3 using KRRRAL[pS]VASLPGL as substrate at 1 uM in presence of 32P-ATP by Hotspot assay relative to control; values are per cent of control.
In series [4] the target is Fibroblast growth factor receptor 1 (Homo sapiens) (UniProt P11362). In words: Inhibition of human FGFR1 using poly[Glu:Tyr] (4:1) as substrate at 1 uM in presence of 32P-ATP by Hotspot assay relative to control; values are per cent of control.
Series [5] concerns the target Mitogen-activated protein kinase 11 (Homo sapiens) (UniProt Q15759). The series can be described thus: Inhibition of human P38b/MAPK11 using myelin basic protein as substrate at 1 uM in presence of 32P-ATP by Hotspot assay relative to control; values are per cent of control.
The target in series [6] is T1, Inhibitor of nuclear factor kappa-B kinase subunit beta (Homo sapiens) (UniProt O14920).
T1 sequence (whole entry): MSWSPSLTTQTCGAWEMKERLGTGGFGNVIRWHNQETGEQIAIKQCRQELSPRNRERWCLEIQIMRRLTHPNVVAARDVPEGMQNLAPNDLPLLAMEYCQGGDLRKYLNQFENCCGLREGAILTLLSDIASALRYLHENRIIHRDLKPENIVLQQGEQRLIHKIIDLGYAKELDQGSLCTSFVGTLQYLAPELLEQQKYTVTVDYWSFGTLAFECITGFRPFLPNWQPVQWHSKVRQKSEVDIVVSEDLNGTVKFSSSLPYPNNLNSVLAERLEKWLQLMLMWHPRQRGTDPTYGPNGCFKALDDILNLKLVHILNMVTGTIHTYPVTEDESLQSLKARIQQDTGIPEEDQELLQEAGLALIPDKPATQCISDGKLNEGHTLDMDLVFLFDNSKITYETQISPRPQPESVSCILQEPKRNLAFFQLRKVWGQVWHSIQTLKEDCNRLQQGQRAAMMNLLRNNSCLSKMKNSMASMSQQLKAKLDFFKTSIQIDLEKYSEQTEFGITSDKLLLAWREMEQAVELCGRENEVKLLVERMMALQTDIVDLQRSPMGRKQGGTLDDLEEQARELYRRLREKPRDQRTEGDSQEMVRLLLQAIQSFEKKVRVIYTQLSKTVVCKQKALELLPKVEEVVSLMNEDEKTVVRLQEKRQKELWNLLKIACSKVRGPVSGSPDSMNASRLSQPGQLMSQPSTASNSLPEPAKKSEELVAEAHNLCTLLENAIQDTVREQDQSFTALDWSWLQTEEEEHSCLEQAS
The series can be described thus: Inhibition of human IKKb/IKBKB using KKKKERLLDDRHDSGLDSMKDEE as substrate at 1 uM in presence of 32P-ATP by Hotspot assay relative to control; values are per cent of control.

The target in series [7] is T2, 3-phosphoinositide-dependent protein kinase 1 (Homo sapiens) (UniProt O15530).
T2 sequence (whole entry): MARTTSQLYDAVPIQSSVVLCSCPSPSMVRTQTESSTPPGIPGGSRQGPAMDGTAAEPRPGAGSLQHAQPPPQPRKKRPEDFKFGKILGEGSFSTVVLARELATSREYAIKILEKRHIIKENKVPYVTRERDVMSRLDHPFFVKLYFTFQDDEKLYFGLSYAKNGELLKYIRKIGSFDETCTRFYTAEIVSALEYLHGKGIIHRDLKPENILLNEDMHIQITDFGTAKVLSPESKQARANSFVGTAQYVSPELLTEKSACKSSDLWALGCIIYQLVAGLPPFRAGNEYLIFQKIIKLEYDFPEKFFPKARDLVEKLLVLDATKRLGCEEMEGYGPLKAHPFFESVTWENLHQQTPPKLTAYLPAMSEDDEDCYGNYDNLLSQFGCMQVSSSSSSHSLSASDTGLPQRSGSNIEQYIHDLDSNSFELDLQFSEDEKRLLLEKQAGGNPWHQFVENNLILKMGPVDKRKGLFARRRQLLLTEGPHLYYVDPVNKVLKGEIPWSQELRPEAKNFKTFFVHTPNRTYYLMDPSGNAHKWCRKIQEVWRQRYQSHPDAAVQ
In words: Inhibition of human PDK1/PDPK1 using KTFCGTPEYLAPEVRREPRILSEEEQEMFRDFDYIADWC as substrate at 1 uM in presence of 32P-ATP by Hotspot assay relative to control; values are per cent of control.

Fibroblast growth factor receptor 1 (Homo sapiens), sequence (P11362 22-822 limits assumed): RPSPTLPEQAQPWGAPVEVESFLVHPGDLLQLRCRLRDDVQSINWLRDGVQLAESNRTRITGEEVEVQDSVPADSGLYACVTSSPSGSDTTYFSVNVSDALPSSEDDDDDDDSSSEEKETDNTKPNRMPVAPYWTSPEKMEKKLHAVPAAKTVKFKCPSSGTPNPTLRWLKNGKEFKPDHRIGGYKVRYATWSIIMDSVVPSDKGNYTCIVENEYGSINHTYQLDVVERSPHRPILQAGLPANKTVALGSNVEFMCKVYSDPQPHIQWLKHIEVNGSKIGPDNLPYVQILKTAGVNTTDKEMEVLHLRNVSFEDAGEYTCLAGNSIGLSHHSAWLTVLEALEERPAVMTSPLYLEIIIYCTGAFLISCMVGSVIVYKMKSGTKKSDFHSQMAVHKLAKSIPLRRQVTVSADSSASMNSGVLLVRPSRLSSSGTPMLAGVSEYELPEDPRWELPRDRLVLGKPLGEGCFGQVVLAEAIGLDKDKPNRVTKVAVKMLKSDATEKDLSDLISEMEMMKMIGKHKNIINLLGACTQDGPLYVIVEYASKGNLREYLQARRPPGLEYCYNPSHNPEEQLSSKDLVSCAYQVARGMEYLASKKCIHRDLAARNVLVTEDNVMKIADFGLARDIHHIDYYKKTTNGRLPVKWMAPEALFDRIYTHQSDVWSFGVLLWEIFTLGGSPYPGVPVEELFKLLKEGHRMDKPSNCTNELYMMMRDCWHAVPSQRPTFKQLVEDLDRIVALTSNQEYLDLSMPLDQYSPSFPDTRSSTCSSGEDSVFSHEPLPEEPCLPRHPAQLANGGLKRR
Mitogen-activated protein kinase 11 (Homo sapiens), sequence (Q15759 whole entry): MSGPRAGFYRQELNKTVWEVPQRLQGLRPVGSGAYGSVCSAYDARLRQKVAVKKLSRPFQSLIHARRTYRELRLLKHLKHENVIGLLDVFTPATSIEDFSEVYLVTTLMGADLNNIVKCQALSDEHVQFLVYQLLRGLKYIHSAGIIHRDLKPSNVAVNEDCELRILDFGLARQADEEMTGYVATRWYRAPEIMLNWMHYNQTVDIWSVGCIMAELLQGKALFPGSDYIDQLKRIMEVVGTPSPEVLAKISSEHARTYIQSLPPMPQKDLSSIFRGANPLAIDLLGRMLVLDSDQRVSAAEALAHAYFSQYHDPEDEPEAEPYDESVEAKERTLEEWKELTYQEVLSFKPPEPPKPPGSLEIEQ
Casein kinase I isoform gamma-3 (Homo sapiens), sequence (Q9Y6M4 whole entry, looked up, canonical isoform): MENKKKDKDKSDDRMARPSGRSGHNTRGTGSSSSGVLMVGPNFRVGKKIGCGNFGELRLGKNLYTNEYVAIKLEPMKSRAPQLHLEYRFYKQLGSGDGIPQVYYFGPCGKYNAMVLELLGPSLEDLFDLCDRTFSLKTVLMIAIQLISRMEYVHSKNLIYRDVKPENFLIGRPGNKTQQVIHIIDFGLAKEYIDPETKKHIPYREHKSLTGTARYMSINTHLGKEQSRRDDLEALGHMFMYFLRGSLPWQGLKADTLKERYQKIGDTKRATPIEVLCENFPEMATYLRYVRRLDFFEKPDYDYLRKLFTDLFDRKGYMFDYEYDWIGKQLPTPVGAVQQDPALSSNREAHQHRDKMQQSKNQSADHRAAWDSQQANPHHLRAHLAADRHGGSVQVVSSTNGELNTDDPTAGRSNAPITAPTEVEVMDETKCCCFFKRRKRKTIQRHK

On to `Cc1cc(-c2cnc(N)c3c(-c4ccc5scnc5c4)csc23)n(C)n1`, for which, in series [1], the inhibition result is “Active”. Moreover, in series [2], the Activity result is recorded as “Toxic”. Moreover, the residual activity in series [3] was determined as 88.2%; in series [4] it was 59.1%; in series [5], 37.8%; in series [6] it was 104%; in series [7], 101%.

For the molecule `CC(C)S(=O)(=O)c1ccc2nccc(Nc3ccc4scnc4c3)c2c1`, the inhibition entry in series [1] is “Active”. Moreover, the Activity result in series [2] is given as “Toxic”. In addition, the residual activity in series [3] came out at 103%; in series [4], 63.3%; in series [5] it was 102%; in series [6], 93.3%; in series [7], 98.6%.

For the molecule `CNC(=O)c1ccc2c(c1)ncn2-c1ccc(CC(=O)OC(C)(C)C)cc1`, the inhibition result in series [1] is “inactive”. The Activity result in series [2] is on record as “Toxic”. Besides, the residual activity in series [3] came to 97.5%; in series [4] it was 56.4%; in series [5], 97.1%; in series [6], 90.2%; in series [7], 100%.
